Test results as given in ChEMBL document CHEMBL1201862, “PubChem BioAssay data set” (2004).
Calls of active or inactive are those of the source.

Key:
[1] = cytotoxicity toward NIH3T3 fibroblasts, dose response, counter-screen, cell-based, ATP luminescence, mouse fibroblasts (AID 2010); assay type: functional;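 further: cells exposed to compound for about 90 hours before reading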
[2] = HepG2 cell cytotoxicity, dose response, cytotoxicity control, ATP luminescence, cherry-pick, set 6 (AID 1053125); assay type: functional, cell-based
cells = conditions: HEK293
[3] = inhibitors of intracellular T. cruzi replication, confirmation, NIH3T3 host cells, beta-gal luminescence (AID 2044); assay type: functional, cell-based;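 further: intracellular parasites grown in NIH/3T3 mouse fibroblasts as host cells; luminescent beta-galactosidase reporter signal from transgenic T. cruzi replicating inside host cells; inhibitors lower the luminescence signal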
[4] = target: 1-phosphatidylinositol 4,5-bisphosphate phosphodiesterase gamma-1 (Homo sapiens, UniProt P19174); assay: Counterscreen for inhibitors of phospholipase C isozymes (PLC-B3): Fluorescence-based biochemical high throughput dose response assay to identify inhibitors of phospholipase C isozymes (PLC-gamma1).
Chain of 1-phosphatidylinositol 4,5-bisphosphate phosphodiesterase gamma-1 (P19174 whole entry): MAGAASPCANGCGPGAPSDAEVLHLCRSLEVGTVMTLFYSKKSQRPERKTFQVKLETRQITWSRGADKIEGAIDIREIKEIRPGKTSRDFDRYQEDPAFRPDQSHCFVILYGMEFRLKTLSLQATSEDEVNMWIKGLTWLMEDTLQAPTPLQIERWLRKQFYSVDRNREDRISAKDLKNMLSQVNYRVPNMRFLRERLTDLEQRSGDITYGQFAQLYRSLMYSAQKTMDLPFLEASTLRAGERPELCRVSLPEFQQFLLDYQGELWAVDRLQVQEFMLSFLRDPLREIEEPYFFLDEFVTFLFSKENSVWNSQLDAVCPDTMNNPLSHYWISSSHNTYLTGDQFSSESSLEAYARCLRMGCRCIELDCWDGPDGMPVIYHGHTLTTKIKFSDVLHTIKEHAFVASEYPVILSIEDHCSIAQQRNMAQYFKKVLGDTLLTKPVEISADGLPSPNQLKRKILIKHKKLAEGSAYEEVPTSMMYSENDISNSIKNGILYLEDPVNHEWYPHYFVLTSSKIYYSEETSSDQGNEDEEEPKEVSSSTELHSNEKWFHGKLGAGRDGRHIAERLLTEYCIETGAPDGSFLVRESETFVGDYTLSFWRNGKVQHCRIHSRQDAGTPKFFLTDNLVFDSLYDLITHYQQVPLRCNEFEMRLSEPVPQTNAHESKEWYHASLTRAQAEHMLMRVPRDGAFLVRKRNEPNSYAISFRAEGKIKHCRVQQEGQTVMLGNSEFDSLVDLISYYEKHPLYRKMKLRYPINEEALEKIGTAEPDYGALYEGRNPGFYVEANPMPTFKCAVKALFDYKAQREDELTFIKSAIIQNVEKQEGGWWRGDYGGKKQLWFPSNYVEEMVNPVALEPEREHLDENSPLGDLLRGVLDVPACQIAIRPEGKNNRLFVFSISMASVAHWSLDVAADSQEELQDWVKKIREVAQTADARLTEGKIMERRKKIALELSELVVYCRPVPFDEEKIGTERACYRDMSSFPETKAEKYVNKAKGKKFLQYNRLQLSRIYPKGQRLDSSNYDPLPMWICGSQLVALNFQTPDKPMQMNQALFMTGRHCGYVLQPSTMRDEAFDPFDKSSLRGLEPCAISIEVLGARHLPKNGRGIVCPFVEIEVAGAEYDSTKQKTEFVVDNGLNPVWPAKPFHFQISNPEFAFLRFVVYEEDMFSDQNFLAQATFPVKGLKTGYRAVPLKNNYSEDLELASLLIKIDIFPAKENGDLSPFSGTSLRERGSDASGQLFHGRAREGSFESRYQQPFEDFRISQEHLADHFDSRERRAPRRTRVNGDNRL

Vero = Vero cell cytotoxicity, cytotoxicity control for flavivirus capping enzyme inhibitors (AID 588742); assay type: functional; conditions: Chlorocebus sabaeus
[5] = target: 1-phosphatidylinositol 4,5-bisphosphate phosphodiesterase beta-3 (Homo sapiens, UniProt Q01970); assay: Fluorescence-based biochemical high throughput dose response assay to identify inhibitors of phospholipase C isozymes (PLC-B3).
Chain of 1-phosphatidylinositol 4,5-bisphosphate phosphodiesterase beta-3 (Q01970 whole entry): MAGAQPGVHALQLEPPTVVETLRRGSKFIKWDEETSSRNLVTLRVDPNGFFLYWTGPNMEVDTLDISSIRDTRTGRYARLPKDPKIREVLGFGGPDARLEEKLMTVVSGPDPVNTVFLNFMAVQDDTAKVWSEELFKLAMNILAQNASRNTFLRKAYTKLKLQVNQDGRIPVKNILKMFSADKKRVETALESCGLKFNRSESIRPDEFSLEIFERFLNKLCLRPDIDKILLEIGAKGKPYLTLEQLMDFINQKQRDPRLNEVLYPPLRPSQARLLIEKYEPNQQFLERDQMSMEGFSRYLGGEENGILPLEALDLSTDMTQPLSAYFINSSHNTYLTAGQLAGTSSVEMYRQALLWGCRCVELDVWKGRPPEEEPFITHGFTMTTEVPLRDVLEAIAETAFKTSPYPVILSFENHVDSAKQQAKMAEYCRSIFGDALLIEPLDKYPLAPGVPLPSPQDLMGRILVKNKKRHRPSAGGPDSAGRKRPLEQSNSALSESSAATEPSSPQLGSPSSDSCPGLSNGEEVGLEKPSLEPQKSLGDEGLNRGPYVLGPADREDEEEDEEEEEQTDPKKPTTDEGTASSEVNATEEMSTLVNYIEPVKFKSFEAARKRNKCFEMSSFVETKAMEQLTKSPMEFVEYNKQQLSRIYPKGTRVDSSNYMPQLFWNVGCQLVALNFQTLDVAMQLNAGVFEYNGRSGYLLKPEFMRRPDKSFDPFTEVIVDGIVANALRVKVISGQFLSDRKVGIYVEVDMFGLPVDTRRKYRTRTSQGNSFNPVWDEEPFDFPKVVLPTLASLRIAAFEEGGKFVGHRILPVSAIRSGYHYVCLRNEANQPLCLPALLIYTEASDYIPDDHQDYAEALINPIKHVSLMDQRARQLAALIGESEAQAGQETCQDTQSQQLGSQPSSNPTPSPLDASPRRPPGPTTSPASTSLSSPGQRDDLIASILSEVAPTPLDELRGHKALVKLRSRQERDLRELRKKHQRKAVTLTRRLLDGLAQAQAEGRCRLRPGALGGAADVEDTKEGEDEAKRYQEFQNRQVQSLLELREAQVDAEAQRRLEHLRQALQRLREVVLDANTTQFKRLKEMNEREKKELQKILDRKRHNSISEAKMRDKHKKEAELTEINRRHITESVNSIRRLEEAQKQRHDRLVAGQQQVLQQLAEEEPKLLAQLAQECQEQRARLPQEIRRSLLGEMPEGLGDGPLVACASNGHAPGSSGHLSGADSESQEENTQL

[6] = target: T1, Sentrin-specific protease 8 (Homo sapiens, UniProt Q96LD8); assay type: functional
T1 sequence (Q96LD8 whole entry): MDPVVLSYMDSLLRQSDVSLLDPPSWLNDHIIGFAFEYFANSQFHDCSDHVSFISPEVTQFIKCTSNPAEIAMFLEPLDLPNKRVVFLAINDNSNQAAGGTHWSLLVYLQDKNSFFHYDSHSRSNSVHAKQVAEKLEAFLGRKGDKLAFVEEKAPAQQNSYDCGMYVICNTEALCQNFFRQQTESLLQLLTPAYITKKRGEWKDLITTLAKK

[7] = target: T2, Rac GTPase-activating protein 1 (Homo sapiens, UniProt Q9H0H5); assay: MgcRacGAP GTPase-activating activity inhibitors, confirmation, biochemical, ADP Hunter fluorescence, primary and confirmatory (AID 624330); assay type: functional
T2 sequence (Q9H0H5 whole entry): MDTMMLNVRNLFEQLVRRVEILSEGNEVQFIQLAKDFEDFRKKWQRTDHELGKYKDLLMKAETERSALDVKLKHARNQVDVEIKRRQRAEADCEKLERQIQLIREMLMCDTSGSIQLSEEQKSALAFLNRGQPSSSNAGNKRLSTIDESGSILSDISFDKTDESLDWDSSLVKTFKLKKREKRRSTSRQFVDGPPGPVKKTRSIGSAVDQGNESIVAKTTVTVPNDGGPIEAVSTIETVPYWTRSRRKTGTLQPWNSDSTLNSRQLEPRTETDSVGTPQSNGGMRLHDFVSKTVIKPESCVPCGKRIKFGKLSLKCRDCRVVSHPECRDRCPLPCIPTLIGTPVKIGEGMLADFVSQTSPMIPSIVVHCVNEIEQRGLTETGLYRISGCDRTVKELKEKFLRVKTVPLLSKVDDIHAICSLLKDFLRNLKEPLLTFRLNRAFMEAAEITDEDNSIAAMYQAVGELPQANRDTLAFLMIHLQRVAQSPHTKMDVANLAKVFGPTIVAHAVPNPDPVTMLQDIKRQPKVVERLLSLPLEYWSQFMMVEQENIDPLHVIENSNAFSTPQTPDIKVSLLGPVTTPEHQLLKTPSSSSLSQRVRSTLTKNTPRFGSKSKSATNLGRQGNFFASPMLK

[8] = target: T3, Histone-lysine N-methyltransferase NSD2 (Homo sapiens, UniProt O96028); assay type: biochemical
T3 sequence (O96028 whole entry): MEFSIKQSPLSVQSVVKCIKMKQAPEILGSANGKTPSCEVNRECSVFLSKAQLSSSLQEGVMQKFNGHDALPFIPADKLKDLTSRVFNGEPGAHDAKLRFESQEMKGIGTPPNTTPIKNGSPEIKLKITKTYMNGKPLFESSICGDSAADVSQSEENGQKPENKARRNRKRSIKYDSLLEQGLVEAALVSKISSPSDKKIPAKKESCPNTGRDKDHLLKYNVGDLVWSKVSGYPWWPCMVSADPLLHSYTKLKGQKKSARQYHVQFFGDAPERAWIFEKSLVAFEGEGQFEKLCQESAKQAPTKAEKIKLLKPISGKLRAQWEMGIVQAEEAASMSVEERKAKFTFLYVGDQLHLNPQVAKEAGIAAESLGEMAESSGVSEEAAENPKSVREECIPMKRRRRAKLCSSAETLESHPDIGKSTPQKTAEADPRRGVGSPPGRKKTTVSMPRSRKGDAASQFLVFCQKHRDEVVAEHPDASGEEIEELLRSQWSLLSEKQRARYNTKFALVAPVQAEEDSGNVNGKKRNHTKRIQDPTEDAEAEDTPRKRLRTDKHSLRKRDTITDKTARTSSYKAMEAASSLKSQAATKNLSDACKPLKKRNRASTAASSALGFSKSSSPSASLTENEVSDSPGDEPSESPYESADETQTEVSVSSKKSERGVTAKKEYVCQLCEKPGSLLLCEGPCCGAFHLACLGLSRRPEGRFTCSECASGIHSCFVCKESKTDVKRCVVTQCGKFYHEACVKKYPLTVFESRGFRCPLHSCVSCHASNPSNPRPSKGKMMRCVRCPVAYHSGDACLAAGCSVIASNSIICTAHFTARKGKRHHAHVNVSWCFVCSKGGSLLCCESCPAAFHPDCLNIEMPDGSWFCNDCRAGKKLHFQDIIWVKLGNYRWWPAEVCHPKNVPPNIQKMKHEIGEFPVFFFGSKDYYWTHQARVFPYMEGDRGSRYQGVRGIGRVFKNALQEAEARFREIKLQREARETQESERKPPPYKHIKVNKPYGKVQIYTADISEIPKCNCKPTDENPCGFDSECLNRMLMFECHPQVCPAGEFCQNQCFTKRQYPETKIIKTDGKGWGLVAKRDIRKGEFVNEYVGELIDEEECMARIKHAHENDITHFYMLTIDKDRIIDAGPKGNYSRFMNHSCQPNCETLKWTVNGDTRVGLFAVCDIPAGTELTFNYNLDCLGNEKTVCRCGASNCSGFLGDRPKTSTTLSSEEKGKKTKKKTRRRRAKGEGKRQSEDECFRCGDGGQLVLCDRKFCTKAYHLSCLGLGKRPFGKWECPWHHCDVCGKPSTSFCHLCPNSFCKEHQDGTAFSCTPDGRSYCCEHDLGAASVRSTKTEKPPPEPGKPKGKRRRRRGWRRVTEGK

Cysteine protease ATG4B = Cysteine protease ATG4B (Homo sapiens, UniProt Q9Y4P1); assay type: functional;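 further: Fluorescence-based dose-response confirmation assay measuring inhibition of ATG4B activity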
Chain of Cysteine protease ATG4B (Q9Y4P1 whole entry, the tested form may be a part): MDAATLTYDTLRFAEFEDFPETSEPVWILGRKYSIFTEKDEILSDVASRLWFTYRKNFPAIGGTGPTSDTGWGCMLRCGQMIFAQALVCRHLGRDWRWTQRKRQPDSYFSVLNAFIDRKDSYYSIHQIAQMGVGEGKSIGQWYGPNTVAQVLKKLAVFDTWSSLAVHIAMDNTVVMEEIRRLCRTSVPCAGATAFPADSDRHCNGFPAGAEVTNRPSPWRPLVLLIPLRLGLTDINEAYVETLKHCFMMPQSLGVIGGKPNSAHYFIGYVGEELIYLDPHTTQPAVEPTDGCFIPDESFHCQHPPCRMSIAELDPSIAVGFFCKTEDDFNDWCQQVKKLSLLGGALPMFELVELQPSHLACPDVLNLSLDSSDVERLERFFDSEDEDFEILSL

[9] = Fluorescence-based cell-based high throughput dose response assay for inhibitors of the interaction of nucleotide-binding oligomerization domain containing 2 (NOD2) and the receptor-interacting serine-threonine kinase 2 (RIPK2).; assay type: functional; conditions: Homo sapiens
Phospholipase A2 = Phospholipase A2 (Homo sapiens, UniProt P04054); assay type: functional;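 further: confirmatory dose-response counterscreen on phospholipase A2, testing hits that came from an ultra-high-throughput screen for ATG4B inhibitors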
Chain of Phospholipase A2 (P04054 whole entry): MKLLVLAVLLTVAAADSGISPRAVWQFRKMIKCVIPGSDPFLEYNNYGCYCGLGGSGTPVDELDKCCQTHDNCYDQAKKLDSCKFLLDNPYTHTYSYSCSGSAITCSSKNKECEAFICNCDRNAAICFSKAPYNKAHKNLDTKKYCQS

[10] = target: T1, Sentrin-specific protease 8; assay type: functional; remark: listed apart in the source
[11] = HeLa cell cytotoxicity, dose response, cytotoxicity control for MgcRacGAP inhibitor project (AID 624300); assay type: functional
Beta-galactosidase = Beta-galactosidase (Escherichia coli, UniProt Q8VNN2); assay: beta-galactosidase enzyme inhibitors and activators, dose response, artefact control for CCR6 antagonist project, biochemical, E. coli enzyme, set 3 (AID 504712); assay type: functional
Genome polyprotein = Genome polyprotein (dengue virus type 2, UniProt P29990); assay: Dengue-2 NS5 methyltransferase inhibitors, primary screen, biochemical, confirmation dose response (AID 588689); assay type: functional
Chain of Genome polyprotein (P29990 2492-3391 limits assumed): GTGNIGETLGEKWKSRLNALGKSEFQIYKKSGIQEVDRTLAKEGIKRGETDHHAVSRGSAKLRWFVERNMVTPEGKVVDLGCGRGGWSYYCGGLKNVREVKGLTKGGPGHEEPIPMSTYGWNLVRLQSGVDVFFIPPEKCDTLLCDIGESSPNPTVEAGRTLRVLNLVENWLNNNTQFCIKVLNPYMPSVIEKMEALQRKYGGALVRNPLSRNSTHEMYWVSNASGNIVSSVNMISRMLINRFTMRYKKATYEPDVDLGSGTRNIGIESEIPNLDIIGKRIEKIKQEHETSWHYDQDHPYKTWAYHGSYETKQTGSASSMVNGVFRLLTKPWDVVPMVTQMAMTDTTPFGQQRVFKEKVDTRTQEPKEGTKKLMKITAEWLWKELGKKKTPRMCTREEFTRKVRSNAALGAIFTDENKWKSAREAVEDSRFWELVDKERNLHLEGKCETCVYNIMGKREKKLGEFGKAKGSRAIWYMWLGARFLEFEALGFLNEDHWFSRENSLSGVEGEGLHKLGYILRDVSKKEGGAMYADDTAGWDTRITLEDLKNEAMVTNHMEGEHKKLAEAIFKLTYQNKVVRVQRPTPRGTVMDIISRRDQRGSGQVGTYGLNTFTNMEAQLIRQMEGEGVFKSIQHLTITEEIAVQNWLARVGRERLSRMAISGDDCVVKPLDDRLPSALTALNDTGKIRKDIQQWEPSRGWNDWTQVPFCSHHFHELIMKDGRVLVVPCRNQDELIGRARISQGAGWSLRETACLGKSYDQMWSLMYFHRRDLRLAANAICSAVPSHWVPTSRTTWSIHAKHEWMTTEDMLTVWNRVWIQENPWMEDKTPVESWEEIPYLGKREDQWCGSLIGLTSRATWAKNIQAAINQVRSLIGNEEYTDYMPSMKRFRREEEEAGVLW

[12] = target: Heat shock protein HSP 90-alpha (Homo sapiens, UniProt P07900); assay type: functional, organism-based
[13] = target: Tyrosyl-DNA phosphodiesterase 2 (Homo sapiens, UniProt O95551); assay: human TDP2 enzyme inhibitors, dose response, biochemical, epi absorbance, IC50 (AID 743297)
Chain of Tyrosyl-DNA phosphodiesterase 2 (O95551 whole entry): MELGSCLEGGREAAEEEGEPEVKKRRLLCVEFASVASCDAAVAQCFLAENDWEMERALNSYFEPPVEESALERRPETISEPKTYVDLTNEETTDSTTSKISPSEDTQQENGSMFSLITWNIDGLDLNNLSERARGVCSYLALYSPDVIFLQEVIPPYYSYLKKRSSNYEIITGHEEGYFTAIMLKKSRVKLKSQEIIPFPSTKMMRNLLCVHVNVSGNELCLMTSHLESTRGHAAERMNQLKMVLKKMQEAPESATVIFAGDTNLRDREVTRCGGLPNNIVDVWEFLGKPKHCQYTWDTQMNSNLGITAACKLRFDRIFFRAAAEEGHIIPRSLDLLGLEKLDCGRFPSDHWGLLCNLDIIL

Kallikrein-7 = Kallikrein-7 (Homo sapiens, UniProt P49862); assay: Fluorescence Intensity-based biochemical primary high throughput dose response assay to identify activators of kallikrein-7 (K7) zymogen.
Chain of Kallikrein-7 (P49862 whole entry): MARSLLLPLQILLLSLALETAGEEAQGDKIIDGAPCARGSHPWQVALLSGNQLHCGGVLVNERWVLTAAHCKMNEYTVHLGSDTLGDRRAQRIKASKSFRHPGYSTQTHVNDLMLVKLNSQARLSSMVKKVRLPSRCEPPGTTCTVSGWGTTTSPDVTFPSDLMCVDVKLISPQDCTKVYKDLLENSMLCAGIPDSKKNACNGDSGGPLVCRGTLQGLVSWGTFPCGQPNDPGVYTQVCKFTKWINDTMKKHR

[14] = BHK-21 cell cytotoxicity, cytotoxicity control for flavivirus guanylyltransferase probe project, secondary screen (AID 624078); assay type: functional
[15] = inhibitors of non-replicating M. tuberculosis, dose response, luciferase, dry powder (AID 651620); assay type: functional; conditions: Mycobacterium tuberculosis
[16] = inhibitors of non-replicating M. tuberculosis, dose response, luciferase, dry powder (AID 651619); assay type: functional; conditions: Mycobacterium tuberculosis
[17] = cytotoxicity in A549 cells, dose response, cytotoxicity control, cell-based, cherry-picked samples (AID 1053184); assay type: functional
[18] = target: Sphingosine 1-phosphate receptor 1 (Homo sapiens, UniProt P21453); assay: Late-stage counterscreen for antagonists of kappa opioid receptor 1 (OPRK1): fluorescence-based cell-based dose response assay to identify antagonists of Sphingosine 1-Phosphate Receptor 1 (S1P1).; assay type: functional
Mu-type opioid receptor = Mu-type opioid receptor (Homo sapiens, UniProt P35372); assay: Late-stage results from the probe development effort to identify antagonists of OPRK1: luminescence-based cell-based dose response OPRM1 counterscreen, Set 2.; assay type: functional
[19] = target: Delta-type opioid receptor (Homo sapiens, UniProt P41143); assay: Late-stage results from the probe development effort to identify antagonists of OPRK1: fluorescence-based cell-based dose response OPRD1 counterscreen, Set 2.; assay type: functional
[20] = target: Kappa-type opioid receptor (Homo sapiens, UniProt P41145); assay: Late-stage fluorescence-based cell-based dose response assay for antagonists of kappa opioid receptor 1 (OPRK1).; assay type: functional
Chain of Kappa-type opioid receptor (P41145 whole entry): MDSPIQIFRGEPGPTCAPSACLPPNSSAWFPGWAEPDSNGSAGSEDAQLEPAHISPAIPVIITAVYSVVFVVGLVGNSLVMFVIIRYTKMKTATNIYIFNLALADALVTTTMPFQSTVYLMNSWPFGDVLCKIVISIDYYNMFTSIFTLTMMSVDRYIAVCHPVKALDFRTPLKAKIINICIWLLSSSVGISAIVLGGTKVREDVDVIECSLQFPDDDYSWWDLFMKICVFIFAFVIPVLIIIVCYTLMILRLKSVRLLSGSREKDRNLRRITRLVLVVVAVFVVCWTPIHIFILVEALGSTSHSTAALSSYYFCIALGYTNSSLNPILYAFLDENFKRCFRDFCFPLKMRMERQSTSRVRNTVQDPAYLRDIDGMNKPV

SMILES: N#Cc1c2ccc(O)cc2n2ccccc12
- EC50 [1]: > 60 µM (not active)
- AC50 [2]: > 52 µM (inactive)
- AC50 (cells): > 52 µM (inactive)
- EC50 [3]: 0.68 µM (active)

SMILES: O=C1C(=C(I)I)c2ccccc2-c2ccccc21
- IC50 [4]: > 122 µM (inactive)
- CC50 (Vero): 15.3 µM (active)
- IC50 [5]: > 122 µM (inactive)
- IC50 [6]: > 100 µM (inactive)
- IC50 [7]: 19.8 µM (active)
- AC50 [8]: 2.24 µM (active)
- IC50 (Cysteine protease ATG4B): 7.13 µM (active)
- IC50 [9]: 1.2 µM (active)
- IC50 (Phospholipase A2): 58.1 µM (inactive)
- IC50 [10]: 1.74 µM (active)
- CC50 [11]: 27.4 µM (active)
- IC50 (Beta-galactosidase): > 66.6 µM (inactive)
- IC50 (Genome polyprotein): 29 µM (active)
- AC50 [12]: 5.65 µM (active)
- IC50 [13]: 8.29 µM (active)

SMILES: C=C(C)Cn1c2ccc(NC(=O)NCc3ccccc3)cc2c(=O)n1C
- EC50 (Kallikrein-7): > 69.5 µM (inactive)

SMILES: Cc1ccc(S(=O)(=O)Nc2cc(Sc3nc(C)cc(C)n3)c(O)c3ccccc23)cc1
- CC50 [14]: 20.9 µM (active)

SMILES: Fc1ccc(CSc2nnc(-c3ccc(Cl)cc3)o2)cc1
- IC90 [15]: 2 µM (active)
- IC90 [16]: 2 µM (active)

SMILES: C[C@@H]1CN([C@@H](C)CO)C(=O)Cc2cc(NC(=O)C3CCCCC3)ccc2O[C@@H]1CN(C)Cc1ccc(Cl)c(Cl)c1
- AC50 [17]: 37.8 µM (active)

SMILES: Clc1ccc2c(Nc3ccc4c(c3)OCO4)ccnc2c1
- IC50 [18]: > 50 µM (inactive)
- IC50 (Mu-type opioid receptor): > 50 µM (inactive)
- IC50 [19]: > 50 µM (inactive)
- IC50 [20]: 13.8 µM (inactive)
